Experimental data reported in ChEMBL document CHEMBL3045584, “1-(6-Halonicotinyl)-2-nitromethylene-imidazolidines as Potential New Insecticides” (1992).
Active and inactive are the calls of the source. The rule behind the calls is not given here.

What follows are compounds tested on Nephotettix cincticeps (assay: Insecticidal activity against Nephotettix cincticeps (green rice leafhopper) measured at 100 ppm after 5 days).
Format: functional, organism-based
With O=[N+]([O-])/C=C1\NCCN1Cc1ccccc1Cl the LC90 was “inactive”.

These compounds were tested on Nephotettix cincticeps (assay: Insecticidal activity against Nephotettix cincticeps (green rice leafhopper) measured after 5 days).
Format: functional
Work on O=[N+]([O-])/C=C1\NCCN1Cc1cccc(Cl)c1 yielded an LC90 of 200 ppm.
O=[N+]([O-])/C=C1\NCCN1Cc1cccnc1Cl showed an LC90 of 200 ppm.
O=[N+]([O-])/C=C1\NCCN1Cc1ccc(Cl)nc1 gave an LC90 of 0.32 ppm.
Compound N#Cc1ccc(CN2CCN/C2=C\[N+](=O)[O-])cn1 has an LC90 of 200 ppm.
O=[N+]([O-])/C=C1\NCCN1Cc1ccc(Br)nc1 showed an LC90 of 0.32 ppm.
Work on O=[N+]([O-])/C=C1\NCCN1Cc1ccncc1 yielded an LC90 of 8 ppm.
Compound O=[N+]([O-])/C=C1\NCCN1Cc1ccc(Cl)cn1 has an LC90 of 200 ppm.
Work on O=[N+]([O-])/C=C1\NCCN1Cc1ccccn1 yielded an LC90 of 200 ppm.
Compound O=[N+]([O-])/C=C1\NCCN1Cc1ccnc(Cl)c1 has an LC90 of 200 ppm.
For O=[N+]([O-])/C=C1\NCCN1Cc1ccccc1, the LC90 was 200 ppm.
For O=[N+]([O-])/C=C1\NCCN1Cc1cccnc1, the LC90 was 8 ppm.
In the case of COc1ccc(CN2CCN/C2=C\[N+](=O)[O-])cc1, the LC90 is reported as 200 ppm.
O=[N+]([O-])/C=C1\NCCN1Cc1ccc(F)nc1 showed an LC90 of 0.32 ppm.
Cc1ccc(CN2CCN/C2=C\[N+](=O)[O-])cc1 gave an LC90 of 200 ppm.
O=[N+]([O-])/C=C1\NCCN1Cc1ccc(Cl)cc1 was tested, and the LC90 was 40 ppm.
Cc1ccc(CN2CCN/C2=C\[N+](=O)[O-])cn1 was tested, and the LC90 was 1.6 ppm.
Compound O=[N+]([O-])/C=C1\NCCN1Cc1cncc(Cl)c1 has an LC90 of 40 ppm.
Work on CSc1ccc(CN2CCN/C2=C\[N+](=O)[O-])cn1 yielded an LC90 of 1000 ppm.
Compound O=[N+]([O-])C=C1NCCN1 [2-(NITROMETHYLENE)IMIDAZOLIDINE] has an LC90 of 1000 ppm.
O=[N+]([O-])/C=C1\NCCN1Cc1ccc([N+](=O)[O-])cc1 gave an LC90 of 200 ppm.
In the case of O=[N+]([O-])/C=C1\NCCN1Cc1ccc(C(F)(F)F)nc1, the LC90 is reported as 8 ppm.
